Assay results as given in patent publication US10526292B2 (Parion Sciences, Inc., priority 2012, dated 2020).

Experiments:
[1] = molecular target: Muc5B (Homo sapiens, UniProt Q9HC84); settings: in vitro; cited from earlier work
[2] = In vitro drug metabolism: summary in words for plasma and hepatocytes among the species evaluated; format: in vitro ADME; settings: plasma (rat, rabbit, dog, human) and hepatocytes (rat, dog)
Protocol: (§1) The metabolic stability of 9 and 15 was assessed in plasma (rat, rabbit, dog and human) and hepatocytes (rat and dog). Compounds were added either directly to plasma or to hepatocyte suspensions at a final concentration of 2.5 or 10 μM, respectively, and incubated at 37° C. for up to six hours. Aliquots were removed at various time points and quenched. The amount of parent compound was quantified via UPLC-fluorescence analysis. The amount of parent compound remaining was calculated based on the total peak area at the time of sampling divided by the total peak area at initiation.

[3] = In vitro drug metabolism: hepatocyte stability, rat; format: in vitro ADME; settings: rat hepatocyte suspension, 10 μM, 37° C., up to six hours
Protocol: as §1

[4] = In vitro drug metabolism: plasma stability, rat; format: in vitro ADME; settings: 2.5 μM, 37° C., up to six hours
Protocol: as §1

[5] = In vitro drug metabolism: plasma stability, rabbit; format: in vitro ADME; settings: 2.5 μM, 37° C., up to six hours
Protocol: as §1

[6] = In vitro drug metabolism: plasma stability, human; format: in vitro ADME; settings: 2.5 μM, 37° C., up to six hours
Protocol: as §1

[7] = system: ExLac rats; assay: Tear volume in rat model of dry eye disease (lacrimal gland excision, ExLac Model); format: in vivo, Sprague Dawley rats; settings: 5 μl test article solution per eye, tear volume by ZoneQuick thread over 6 h
Protocol: The effects of compounds on tear volume was assessed in a rat model of dry eye disease in which Sprague Dawley rats undergo surgical lacrimal gland excision (ExLac Model) to reduce normal tear volume. The lacrimal excision reduces normal tear volume by ˜50% (Table 2).
Both the ipsilateral and contralateral eyes were dosed with 5 μl of test article solution. Tear production was measured using the ZoneQuick cotton thread with impregnated phenol red dye. The folded end of the thread was held in the lateral-ventral conjunctival cul-de-sac for 10 seconds. The length of tear wicking onto the thread was determined by measuring the length of the thread that changes color from yellow to red. Use of a stereomicroscope was assist in the accurate measurement (recorded in millimeters) of the wicking/color change. Tear volume was assessed pre-dose, and 15, 30, 60, 120, and 360 minute post-dose. For reference, the effect of a saline vehicle is shown for ExLac rats and normal (no lacrimal excision surgery) rats.

[8] = In vitro drug metabolism: plasma stability, dog; format: in vitro ADME; settings: 2.5 μM, 37° C., up to six hours
Protocol: as §1

[9] = In vitro drug metabolism: hepatocyte stability, dog; format: in vitro ADME; settings: dog hepatocyte suspension, 10 μM, 37° C., up to six hours
Protocol: as §1

[10] = Confocal microscopy assay of amiloride congener transport; format: in vitro ADME; settings: applied to apical (epithelial) surface of mouse corneas, one hour at 37 C
From the text: Serial x-y images were obtained one hour post-drug addition by confocal microsopy.

Row | Compound | Concentration required to fully reduce Muc5B [1] | Stability towards metabolic hydrolysis in plasma and hepatocytes [2] | Hepatocyte Stability (amount of parent compound remaining) [3] | Plasma Stability (amount of parent compound remaining) [4] | Plasma Stability (amount of parent compound remaining) [5] | Plasma Stability (amount of parent compound remaining) [6] | 6 h Ocular Hydration (AUC0-6) [7] | Plasma Stability (amount of parent compound remaining) [8] | Hepatocyte Stability (amount of parent compound remaining) [9] | Penetration of the cornea (confocal x-z image, FIG. 16) [10]
1 | CC(=O)N[C@@H](CS)C(=O)O [NAC, N-acetyl cysteine] | 200 mM | – | – | – | – | – | – | – | – | –
2 | N=C(N)NCCCC[C@@H](N)C(=O)NCCCN(CCCNC(=O)[C@H](N)CCCCNC(=N)N)CCOc1ccc(CCCCNC(=N)NC(=O)c2nc(Cl)c(N)nc2N)cc1 [Compound 9, (2R,2′R)—N,N′-(3,3′-(2-(4-(4-(3-(3,5-diamino-6-chloropyrazine-2-carbonyl)guanidino)butyl)phenoxy)ethylazanediyl)bis(propane-3,1-diyl))bis(2-amino-6-guanidinohexanamide)] | – | stable towards metabolic hydrolysis | 100% | 87% | 89% | 101% | 50.2 | 103% | 94% | remains associated with the apical (epithelial) surface
